Measured values published in patent US10597388B2, “Pyridazinone herbicides” (FMC CORPORATION, priority 2014, dated 2020).

Assays:
Type in all cases: in vivo
[1] = tested on: johnsongrass (Sorghum halepense); assay: Test C greenhouse herbicide test, pre- and postemergence
In short: (§1)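 Greenhouse pots; pre-em on seeded loam:sand blend, post-em on 2–18 cm plants (1–4 leaf) in sphagnum peat/vermiculite medium. Formulation: non-phytotoxic solvent + surfactant. Read-out: visual % control (0–100) vs controls at 13–15 d.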

[2] = tested on: morningglory (Ipomoea coccinea); assay: as above
In short: as §1

corn (Zea mays) = assay: as above
In short: as §1

[3] = tested on: ragweed (common ragweed, Ambrosia elatior); assay: as above
In short: as §1

[4] = tested on: ryegrass, Italian (Italian ryegrass, Lolium multiflorum); assay: as above
In short: as §1

[5] = tested on: lambsquarters (Chenopodium album); assay: as above
In short: as §1

[6] = tested on: waterhemp (common waterhemp, Amaranthus rudis); assay: as above
In short: as §1

soybean (Glycine max) = assay: as above
In short: as §1

[7] = tested on: oilseed rape (Brassica napus); assay: as above
In short: as §1

[8] = tested on: wheat (winter wheat, Triticum aestivum); assay: as above
In short: as §1

[9] = tested on: blackgrass (Alopecurus myosuroides); assay: as above
In short: as §1

[10] = tested on: nutsedge, yellow (yellow nutsedge, Cyperus esculentus); assay: as above
In short: as §1

[11] = tested on: pigweed (Amaranthus retroflexus); assay: as above
In short: as §1

[12] = tested on: foxtail, giant (giant foxtail, Setaria faberii); assay: as above
In short: as §1

[13] = tested on: crabgrass, large (large crabgrass, Digitaria sanguinalis); assay: as above
In short: as §1

kochia (Kochia scoparia) = assay: Test C greenhouse herbicide test, postemergence; details: for Plant response rating, Kochia: Postemergence
In short: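 Visual injury scores (0–100, where 100 means complete control) were assigned 13 to 15 d after postemergence application, by comparison with untreated plants. Treated seedlings stood 2 to 18 cm tall, at the 1- to 4-leaf stage.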

[14] = Postemergence, 125 g ai/ha, scale 0 to 100, 0 is no effect, 100 is complete control
[15] = Postemergence, 250 g ai/ha, scale 0 to 100, 0 no effect, 100 complete control, 13 to 15 d
[16] = Preemergence, 31 g ai/ha, scale 0 to 100, 0 is no effect, 100 is complete control
[17] = Preemergence, 62 g ai/ha, scale 0 to 100, 0 is no effect, 100 is complete control
[18] = Preemergence, 125 g ai/ha, scale 0 to 100, 0 is no effect, 100 is complete control
[19] = Preemergence, 250 g ai/ha, scale 0 to 100 (0 no effect, 100 complete control)
[20] = postemergence, 62 g ai/ha, scale 0 to 100, 0 no effect, 100 complete control
[21] = Postemergence, 31 g ai/ha, 0 to 100 scale (0 no effect, 100 complete control)

In the case of CC(=O)Oc1c(C)nn(C)c(=O)c1-c1ccc(F)c2ccccc12 [Compound 90], the “Plant response rating, Johnsongrass” value [1, 14] is reported as 10, the “Plant response rating, Johnsongrass” value [1, 15] is reported as 20 and the “Plant response rating, Johnsongrass” value [1, 16] is reported as 50. For the same molecule, the “Plant response rating, Johnsongrass” value [1, 17] was 55, the “Plant response rating, Johnsongrass” value [1, 18] was 60 and the “Johnsongrass plant response rating” value [1, 19] was 65. For the same molecule, the “Johnsongrass plant response rating” value [1, 20] was 10, the “Plant response rating, Morningglory” value [2, 14] was 100 and the “Plant response rating, Morningglory” value [2, 15] was 100. The “Plant response rating, Morningglory” value [2, 16] was 85, the “Plant response rating, Morningglory” value [2, 17] was 85 and the “Plant response rating, Morningglory” value [2, 18] was 98. The “Morningglory plant response rating” value [2, 19] was 98, the “Morningglory plant response rating” value [2, 20] was 100 and the “Corn plant response rating” value (corn (Zea mays); [21]) was 5. For the same molecule, the “Plant response rating, Corn” value (corn (Zea mays); [14]) was 10, the “Plant response rating, Corn” value (corn (Zea mays); [15]) was 25 and the “Plant response rating, Corn” value (corn (Zea mays); [16]) was 0. The “Plant response rating, Corn” value (corn (Zea mays); [17]) was 0, the “Plant response rating, Corn” value (corn (Zea mays); [18]) was 5 and the “Corn plant response rating” value (corn (Zea mays); [19]) was 30. For the same molecule, the “Corn plant response rating” value (corn (Zea mays); [20]) was 10, the “Plant response rating, Ragweed” value [3, 14] was 95 and the “Plant response rating, Ragweed” value [3, 15] was 100. For the same molecule, the “Plant response rating, Ragweed” value [3, 16] was 80, the “Plant response rating, Ragweed” value [3, 17] was 90 and the “Plant response rating, Ragweed” value [3, 18] was 85. For the same molecule, the “Ragweed plant response rating” value [3, 19] was 95, the “Ragweed plant response rating” value [3, 20] was 85 and the “Plant response rating, Ryegrass, Italian” value [4, 14] was 90. For the same molecule, the “Plant response rating, Ryegrass, Italian” value [4, 15] was 90, the “Plant response rating, Ryegrass, Italian” value [4, 16] was 90 and the “Plant response rating, Ryegrass, Italian” value [4, 17] was 95. For the same molecule, the “Plant response rating, Ryegrass, Italian” value [4, 18] was 95, the “Ryegrass, Italian plant response rating” value [4, 19] was 95 and the “Ryegrass, Italian plant response rating” value [4, 20] was 90. The “Plant response rating, Lambsquarters” value [5, 14] was 98, the “Plant response rating, Lambsquarters” value [5, 15] was 100 and the “Plant response rating, Lambsquarters” value [5, 16] was 75. The “Plant response rating, Lambsquarters” value [5, 17] was 80, the “Plant response rating, Lambsquarters” value [5, 18] was 85 and the “Lambsquarters plant response rating” value [5, 19] was 100. For the same molecule, the “Lambsquarters plant response rating” value [5, 20] was 98, the “Plant response rating, Waterhemp” value [6, 14] was 100 and the “Plant response rating, Waterhemp” value [6, 15] was 100. For the same molecule, the “Plant response rating, Waterhemp” value [6, 16] was 75, the “Plant response rating, Waterhemp” value [6, 17] was 90 and the “Plant response rating, Waterhemp” value [6, 18] was 100. For the same molecule, the “Waterhemp plant response rating” value [6, 19] was 100, the “Waterhemp plant response rating” value [6, 20] was 100 and the “Plant response rating, Soybean” value (soybean (Glycine max); [14]) was 55. The “Plant response rating, Soybean” value (soybean (Glycine max); [15]) was 70, the “Plant response rating, Soybean” value (soybean (Glycine max); [16]) was 0 and the “Plant response rating, Soybean” value (soybean (Glycine max); [17]) was 0. For the same molecule, the “Plant response rating, Soybean” value (soybean (Glycine max); [18]) was 10, the “Soybean plant response rating” value (soybean (Glycine max); [19]) was 100 and the “Soybean plant response rating” value (soybean (Glycine max); [20]) was 50. The “Plant response rating, Oilseed Rape” value [7, 14] was 0, the “Plant response rating, Oilseed Rape” value [7, 15] was 5 and the “Plant response rating, Oilseed Rape” value [7, 16] was 30. The “Plant response rating, Oilseed Rape” value [7, 17] was 35, the “Plant response rating, Oilseed Rape” value [7, 18] was 50 and the “Oilseed Rape plant response rating” value [7, 19] was 90. The “Oilseed Rape plant response rating” value [7, 20] was 0, the “Plant response rating, Wheat” value [8, 14] was 10 and the “Plant response rating, Wheat” value [8, 15] was 30. For the same molecule, the “Plant response rating, Wheat” value [8, 16] was 5, the “Plant response rating, Wheat” value [8, 17] was 0 and the “Plant response rating, Wheat” value [8, 18] was 35. For the same molecule, the “Wheat plant response rating” value [8, 19] was 40, the “Wheat plant response rating” value [8, 20] was 10 and the “Blackgrass plant response rating” value [9, 21] was 10. For the same molecule, the “Plant response rating, Blackgrass” value [9, 14] was 25, the “Plant response rating, Blackgrass” value [9, 15] was 40 and the “Plant response rating, Blackgrass” value [9, 16] was 25. For the same molecule, the “Plant response rating, Blackgrass” value [9, 17] was 40, the “Plant response rating, Blackgrass” value [9, 18] was 50 and the “Blackgrass plant response rating” value [9, 19] was 55. For the same molecule, the “Blackgrass plant response rating” value [9, 20] was 15, the “Plant response rating, Nutsedge, Yellow” value [10, 14] was 90 and the “Plant response rating, Nutsedge, Yellow” value [10, 15] was 85. The “Plant response rating, Nutsedge, Yellow” value [10, 16] was 55, the “Plant response rating, Nutsedge, Yellow” value [10, 17] was 45 and the “Plant response rating, Nutsedge, Yellow” value [10, 18] was 85. For the same molecule, the “Nutsedge, Yellow plant response rating” value [10, 19] was 90, the “Nutsedge, Yellow plant response rating” value [10, 20] was 80 and the “Plant response rating, Pigweed” value [11, 14] was 95. For the same molecule, the “Plant response rating, Pigweed” value [11, 15] was 100, the “Plant response rating, Pigweed” value [11, 16] was 100 and the “Plant response rating, Pigweed” value [11, 17] was 100. For the same molecule, the “Plant response rating, Pigweed” value [11, 18] was 100, the “Pigweed plant response rating” value [11, 19] was 100 and the “Pigweed plant response rating” value [11, 20] was 80. For the same molecule, the “Plant response rating, Foxtail, Giant” value [12, 14] was 55, the “Plant response rating, Foxtail, Giant” value [12, 15] was 75 and the “Plant response rating, Foxtail, Giant” value [12, 16] was 75. The “Plant response rating, Foxtail, Giant” value [12, 17] was 75, the “Plant response rating, Foxtail, Giant” value [12, 18] was 90 and the “Foxtail, Giant plant response rating” value [12, 19] was 95. The “Foxtail, Giant plant response rating” value [12, 20] was 25, the “Plant response rating, Crabgrass, Large” value [13, 14] was 35 and the “Plant response rating, Crabgrass, Large” value [13, 15] was 75. For the same molecule, the “Plant response rating, Crabgrass, Large” value [13, 16] was 35, the “Plant response rating, Crabgrass, Large” value [13, 17] was 70 and the “Plant response rating, Crabgrass, Large” value [13, 18] was 75. For the same molecule, the “Crabgrass, Large plant response rating” value [13, 19] was 85, the “Crabgrass, Large plant response rating” value [13, 20] was 15 and the “Plant response rating, Kochia” value (kochia (Kochia scoparia); 125 g ai/ha, scale 0 to 100, 0 is no effect, 100 is complete control) was 100. For the same molecule, the “Plant response rating, Kochia” value (kochia (Kochia scoparia); 250 g ai/ha, scale 0 to 100, 0 no effect, 100 complete control, 13 to 15 d) was 100 and the “Kochia plant response rating” value (kochia (Kochia scoparia); [20]) was 100.
